Measurements reported in the supplement of paper PMC4862054.
“And” between values parts separate entries of the source, which are not always exact repeats. Equal values may be shown once.

How the values were obtained:
Conditions in all cases: incubation time: 72 h
CAL-85-1 [1] = experiment: normalised viability (% of control), CellTiter-Blue; higher = more viable cells (about 100 = DMSO control)
Method: (§1)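 DSRT, CellTiter-Blue viability, 72 h incubation. Signal is normalised to DMSO and benzethonium chloride controls. Value is the normalised response at dose 6.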

MDA-MB-453 [2] = experiment: as above
Method: as §1

CAL-148 [3] = experiment: as above
Method: as §1

CAL-51 [4] = experiment: as above
Method: as §1

HDQ-P1 [5] = experiment: as above
Method: as §1

DU-4475 [6] = experiment: as above
Method: as §1

MDA-MB-436 = experiment: normalised viability (% of control), CellTiter-Blue; higher = more viable cells (100 = DMSO, 0 = benzethonium chloride kill control)
Method: (§2)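 DSRT, CellTiter-Blue viability, 72 h incubation. Signal is normalised to DMSO and benzethonium chloride controls. Value is the normalised response at dose 1.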

HCC1937 [7] = experiment: as above
Method: as §2

CAL-85-1 [8] = experiment: as above
Method: as §2

BT-549 = experiment: as above
Method: as §2

MFM-223 [9] = experiment: as above
Method: as §2

CAL-120 = experiment: as above
Method: as §2

SK-BR-3 = experiment: as above
Method: as §2

MDA-MB-453 [10] = experiment: as above
Method: as §2

CAL-148 [11] = experiment: as above
Method: as §2

BT-474 = experiment: as above
Method: as §2

MDA-MB-231 = experiment: as above
Method: as §2

CAL-51 [12] = experiment: as above
Method: as §2

HCC1143 = experiment: as above
Method: as §2

HCC1599 = experiment: as above
Method: as §2

MDA-MB-468 = experiment: as above
Method: as §2

HDQ-P1 [13] = experiment: as above
Method: as §2

Hs578T = experiment: as above
Method: as §2

DU-4475 [14] = experiment: as above
Method: as §2

HCC1937 [15] = experiment: drug sensitivity score (DSS), CellTox Green (DSS (AUC-based score)); higher = stronger drug effect (viability inhibition or cytotoxicity); extreme values may be limits of the assay
In short: (§3)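 The area under the fitted dose-response curve was used to calculate the drug sensitivity score. Cells from breast cancer lines were incubated for 72 h in 384-well plates with compound at 5 concentrations spaced 10-fold over a 10,000-fold range specific to each compound. Plates were read for CellTox Green and then CellTiter-Glo, and normalised to 0.1 % DMSO and a positive kill control.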

MCF-10A = experiment: as above
In short: as §3

MFM-223 [16] = experiment: as above
In short: as §3

Compound: Cc1cnc(NC(=O)Nc2cc(Br)c(C)cc2OC[C@@H]2CNCCO2)cn1
- normalised viability (CAL-85-1 [1]; 30 nM): 92%
- normalised viability (MDA-MB-453 [2]; 30 nM): 94.3%
- normalised viability (CAL-148 [3]; 30 nM): 91.7%
- normalised viability (CAL-51 [4]; 30 nM): 95.7%
- normalised viability (HDQ-P1 [5]; 30 nM): 68.4%
- normalised viability (DU-4475 [6]; 30 nM): 106%
- normalised viability (MDA-MB-436; 0.1 nM): 119%
- normalised viability (HCC1937 [7]; 0.1 nM): 93.6%
- normalised viability (CAL-85-1 [8]; 0.1 nM): 96.7%
- normalised viability (BT-549; 0.1 nM): 87.9%
- normalised viability (MFM-223 [9]; 0.1 nM): 102%
- normalised viability (CAL-120; 0.1 nM): 98.6%
- normalised viability (SK-BR-3; 0.1 nM): 91.2%
- normalised viability (MDA-MB-453 [10]; 0.1 nM): 99.5%
- normalised viability (CAL-148 [11]; 0.1 nM): 99.8%
- normalised viability (BT-474; 0.1 nM): 107%
- normalised viability (MDA-MB-231; 0.1 nM): 93.3%
- normalised viability (CAL-51 [12]; 0.1 nM): 86.8%
- normalised viability (HCC1143; 0.1 nM): 115%
- normalised viability (HCC1599; 0.1 nM): 114%
- normalised viability (MDA-MB-468; 0.1 nM): 110%
- normalised viability (HDQ-P1 [13]; 0.1 nM): 84.2%
- normalised viability (Hs578T; 0.1 nM): 106%
- normalised viability (DU-4475 [14]; 0.1 nM): 108%

Compound: Cc1cnc(NC(=O)Nc2cc(Br)c(C)cc2OC[C@@H]2CNCCO2)cn1 [Rabusertib]
- drug sensitivity score (HCC1937 [15]): 0
- drug sensitivity score (MCF-10A): 0
- drug sensitivity score (MFM-223 [16]): 0

Compound: CC[C@H](C)C(=O)O[C@H]1C[C@H](O)C=C2C=C[C@H](C)[C@H](CC[C@@H](O)C[C@@H](O)CC(=O)O)[C@H]21 [Pravastatin]
- drug sensitivity score (HCC1937 [15]): 0
- drug sensitivity score (MCF-10A): 2.17
- drug sensitivity score (MFM-223 [16]): 0

Compound: O=C(/C=C/c1cccnc1)NCCCCC1CCN(C(=O)c2ccccc2)CC1 [Daporinad]
- drug sensitivity score (HCC1937 [15]): 10.4
- drug sensitivity score (MCF-10A): 0
- drug sensitivity score (MFM-223 [16]): 0

Compound: Nc1nc(F)nc2c1ncn2[C@@H]1O[C@H](CO)[C@@H](O)[C@@H]1O [Fludarabine]
- normalised viability (CAL-85-1 [1]; 300 nM): 90.4%
- normalised viability (MDA-MB-453 [2]; 300 nM): 100%
- normalised viability (CAL-148 [3]; 300 nM): 72.2%
- normalised viability (CAL-51 [4]; 300 nM): 103%
- normalised viability (HDQ-P1 [5]; 300 nM): 75.3%
- normalised viability (DU-4475 [6]; 300 nM): 100%
- normalised viability (MDA-MB-436; 1 nM): 90.5%
- normalised viability (HCC1937 [7]; 1 nM): 105%
- normalised viability (CAL-85-1 [8]; 1 nM): 92.8%
- normalised viability (BT-549; 1 nM): 110%
- normalised viability (MFM-223 [9]; 1 nM): 101%
- normalised viability (CAL-120; 1 nM): 83%
- normalised viability (SK-BR-3; 1 nM): 98.7%
- normalised viability (MDA-MB-453 [10]; 1 nM): 102%
- normalised viability (CAL-148 [11]; 1 nM): 81.9%
- normalised viability (BT-474; 1 nM): 67.6%
- normalised viability (MDA-MB-231; 1 nM): 89.1%
- normalised viability (CAL-51 [12]; 1 nM): 103%
- normalised viability (HCC1143; 1 nM): 86.8%
- normalised viability (HCC1599; 1 nM): 92.6%
- normalised viability (MDA-MB-468; 1 nM): 91.2%
- normalised viability (HDQ-P1 [13]; 1 nM): 134%
- normalised viability (Hs578T; 1 nM): 109%
- normalised viability (DU-4475 [14]; 1 nM): 101%
- drug sensitivity score (HCC1937 [15]): 0
- drug sensitivity score (MCF-10A): 0

Compound: C=CC(=O)N1CCC[C@@H](n2nc(-c3ccc(Oc4ccccc4)cc3)c3c(N)ncnc32)C1 [Ibrutinib]
- drug sensitivity score (HCC1937 [15]): 0
- drug sensitivity score (MCF-10A): 0
- drug sensitivity score (MFM-223 [16]): 0

Compound: COc1cc2c(NC3CCN(C(C)C)CC3)nc(C3CCCCC3)nc2cc1OCCCN1CCCC1 [UNC0638]
- drug sensitivity score (HCC1937 [15]): 7.61
- drug sensitivity score (MCF-10A): 7.41
- drug sensitivity score (MFM-223 [16]): 3.4

Compound: CC[C@H](Nc1ncnc2[nH]cnc12)c1nc2cccc(F)c2c(=O)n1-c1ccccc1 [GS-1101]
- drug sensitivity score (HCC1937 [15]): 0
- drug sensitivity score (MCF-10A): 0
- drug sensitivity score (MFM-223 [16]): 0

Compound: NCCCNCCSP(=O)(O)O [Amifostine]
- normalised viability (CAL-85-1 [1]; 300 nM): 93.8%
- normalised viability (MDA-MB-453 [2]; 300 nM): 105%
- normalised viability (CAL-148 [3]; 300 nM): 95.2%
- normalised viability (CAL-51 [4]; 300 nM): 103%
- normalised viability (HDQ-P1 [5]; 300 nM): 63.9%
- normalised viability (DU-4475 [6]; 300 nM): 87.7%
- normalised viability (MDA-MB-436; 1 nM): 102%
- normalised viability (HCC1937 [7]; 1 nM): 91.8%
- normalised viability (CAL-85-1 [8]; 1 nM): 85.2%
- normalised viability (BT-549; 1 nM): 98%
- normalised viability (MFM-223 [9]; 1 nM): 76.4%
- normalised viability (CAL-120; 1 nM): 73.3%
- normalised viability (SK-BR-3; 1 nM): 91.7%
- normalised viability (MDA-MB-453 [10]; 1 nM): 97.4%
- normalised viability (CAL-148 [11]; 1 nM): 103%
- normalised viability (BT-474; 1 nM): 85.7%
- normalised viability (MDA-MB-231; 1 nM): 80%
- normalised viability (CAL-51 [12]; 1 nM): 106%
- normalised viability (HCC1143; 1 nM): 81.4%
- normalised viability (HCC1599; 1 nM): 110%
- normalised viability (MDA-MB-468; 1 nM): 111%
- normalised viability (HDQ-P1 [13]; 1 nM): 98.3%
- normalised viability (Hs578T; 1 nM): 107%
- normalised viability (DU-4475 [14]; 1 nM): 91.6%

Compound: COc1cc([C@@H]2c3cc4c(cc3[C@@H](O[C@@H]3O[C@@H]5CO[C@@H](c6cccs6)O[C@H]5[C@H](O)[C@H]3O)[C@H]3COC(=O)[C@H]23)OCO4)cc(OC)c1O [Teniposide]
- normalised viability (CAL-85-1 [1]; 300 nM): 82.6%
- normalised viability (MDA-MB-453 [2]; 300 nM): 87.9%
- normalised viability (CAL-148 [3]; 300 nM): 49.2%
- normalised viability (CAL-51 [4]; 300 nM): 28.1%
- normalised viability (HDQ-P1 [5]; 300 nM): 86.3%
- normalised viability (DU-4475 [6]; 300 nM): 10.4%
- normalised viability (MDA-MB-436; 1 nM): 110%
- normalised viability (HCC1937 [7]; 1 nM): 94%
- normalised viability (CAL-85-1 [8]; 1 nM): 105%
- normalised viability (BT-549; 1 nM): 85%
- normalised viability (MFM-223 [9]; 1 nM): 92.1%
- normalised viability (CAL-120; 1 nM): 98.2%
- normalised viability (SK-BR-3; 1 nM): 97.2%
- normalised viability (MDA-MB-453 [10]; 1 nM): 113%
- normalised viability (CAL-148 [11]; 1 nM): 103%
- normalised viability (BT-474; 1 nM): 87.9%
- normalised viability (MDA-MB-231; 1 nM): 132%
- normalised viability (CAL-51 [12]; 1 nM): 105%
- normalised viability (HCC1143; 1 nM): 98.1%
- normalised viability (HCC1599; 1 nM): 98.3%
- normalised viability (MDA-MB-468; 1 nM): 98.9%
- normalised viability (HDQ-P1 [13]; 1 nM): 104%
- normalised viability (Hs578T; 1 nM): 127%
- normalised viability (DU-4475 [14]; 1 nM): 94.6%
- drug sensitivity score (HCC1937 [15]): 8.06
- drug sensitivity score (MFM-223 [16]): 6.4

Compound: Nc1ncn([C@H]2C[C@H](O)[C@@H](CO)O2)c(=O)n1 [Decitabine]
- normalised viability (CAL-85-1 [1]; 300 nM): 81.5% and 90.7%
- normalised viability (MDA-MB-453 [2]; 300 nM): 95.2% and 101%
- normalised viability (CAL-148 [3]; 300 nM): 97.3% and 76%
- normalised viability (CAL-51 [4]; 300 nM): 99% and 92.1%
- normalised viability (HDQ-P1 [5]; 300 nM): 65.3% and 81.8%
- normalised viability (DU-4475 [6]; 300 nM): 86% and 85.5%
- normalised viability (MDA-MB-436; 1 nM): 94.8% and 84.5%
- normalised viability (HCC1937 [7]; 1 nM): 95.8% and 102%
- normalised viability (CAL-85-1 [8]; 1 nM): 81.4% and 95.5%
- normalised viability (BT-549; 1 nM): 110% and 109%
- normalised viability (MFM-223 [9]; 1 nM): 82.4% and 104%
- normalised viability (CAL-120; 1 nM): 84.8% and 82.6%
- normalised viability (SK-BR-3; 1 nM): 82% and 93.2%
- normalised viability (MDA-MB-453 [10]; 1 nM): 93% and 107%
- normalised viability (BT-474; 1 nM): 98.4% and 79.8%
- normalised viability (MDA-MB-231; 1 nM): 111% and 91.6%
- normalised viability (CAL-51 [12]; 1 nM): 113% and 104%
- normalised viability (HCC1143; 1 nM): 88.1% and 95.7%
- normalised viability (HCC1599; 1 nM): 107% and 109%
- normalised viability (MDA-MB-468; 1 nM): 96.6% and 98.9%
- normalised viability (HDQ-P1 [13]; 1 nM): 114% and 108%
- normalised viability (Hs578T; 1 nM): 90.4% and 111%
- normalised viability (DU-4475 [14]; 1 nM): 102% and 101%
- drug sensitivity score (HCC1937 [15]): 0
- drug sensitivity score (MCF-10A): 0
- drug sensitivity score (MFM-223 [16]): 0

Compound: CNC(=O)c1cc(Oc2ccc(NC(=O)Nc3cc(C(C)(C)C)nn3-c3ccc4ncccc4c3)c(F)c2)ccn1 [Rebastinib]
- drug sensitivity score (HCC1937 [15]): 0
- drug sensitivity score (MCF-10A): 0
- drug sensitivity score (MFM-223 [16]): 0
